Results as given in patent US20110212977A1, “P70 S6 KINASE INHIBITOR AND MTOR INHIBITOR COMBINATION THERAPY” (ELI LILLY AND COMPANY, priority 2008, published 2011).

System: U87MG human glioblastoma cells
Test: Determination of In Vivo Efficacy: U87MG human glioblastoma xenograft tumor volume;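 further: subcutaneous flank xenografts in female athymic nude mice, tumor volume measured twice weekly, log volumes compared with the combined-vehicle control group by repeated measures ANOVA at each time point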
Settings: for Tumor volume Mean / Signif. (difference in tumor volume relative to the vehicle group): 3 mg/kg of each agent orally once daily; for Tumor volume Mean: U87MG xenograft in nude mice
Procedure: The vehicle group is given the 2 vehicles (NaCMC Tween 80 and 35% PEG300/10% HPBCD/10% PS80 in H2O) in combination (0.1 mL of each). Treatment is continued for 23 days. Tumor volumes are measured using standard technique twice weekly and reported. Tumor size and body weight are recorded and analyzed bi-weekly. Tumor volume is estimated by using the formula: v=l×w^2×0.536 where l=larger of measured diameter and w=smaller of perpendicular diameter. The analysis uses SAS software version 8.2 (SAS Institutes Inc, Cary, N.C.) to analyze the log tumor volume data using a repeated measures ANOVA model with a spatial power covariance structure. For each time point taken, treatment groups are compared to the vehicle control group. Tumor volumes are given as means±standard errors for each treatment group determined from a repeated measures ANOVA on each group.
The data in the column headed Signif. indicates whether the difference relative to the vehicle group is statistically significant: NS=Not Significant (p>0.05); *=0.01<p≦0.05; **=0.001<<p≦0.01; ***=p≦0.001.

| SMILES | Tumor volume Mean (Day 7) | Tumor volume Mean (Day 10) | Tumor volume Mean (Day 13) | Tumor volume Mean (Day 16) | Tumor volume Mean (Day 20) | Tumor volume Mean (Day 23) | Tumor volume Mean (Day 27) | Tumor volume Mean (Day 30) | Tumor volume Mean (Day 34) | Statistical difference from the vehicle group (in words) (whole study (throughout), 3 mg/kg orally once daily) | Signif. (difference in tumor volume relative to the vehicle group) (Day 7) | Signif. (difference in tumor volume relative to the vehicle group) (Day 10) | Signif. (difference in tumor volume relative to the vehicle group) (Day 13) | Signif. (difference in tumor volume relative to the vehicle group) (Day 16) | Signif. (difference in tumor volume relative to the vehicle group) (Day 20) | Signif. (difference in tumor volume relative to the vehicle group) (Day 23) | Signif. (difference in tumor volume relative to the vehicle group) (Day 27) | Signif. (difference in tumor volume relative to the vehicle group) (Day 30) | Signif. (difference in tumor volume relative to the vehicle group) (Day 34) |
| --- | --- | --- | --- | --- | --- | --- | --- | --- | --- | --- | --- | --- | --- | --- | --- | --- | --- | --- | --- |
| CO[C@H]1CC2CC[C@@H](C)[C@@](O)(O2)C(=O)C(=O)N2CCCC[C@H]2C(=O)O[C@H]([C@H](C)C[C@@H]2CC[C@@H](O)[C@H](OC)C2)CC(=O)[C@H](C)/C=C(\C)[C@@H](O)[C@@H](OC)C(=O)[C@H](C)C[C@H](C)/C=C/C=C/C=C/1C [Rapamycin, rapamycin, reference compound] | 43.1 | 65.6 | 121.9 | 220.4 | 311.5 | 606.0 | 879.7 | 1160.8 | 1429.5 | not significantly different | – | – | – | – | – | – | – | – | – |
| Cn1cc(-c2ccc(F)c(C(F)(F)F)c2)nc1C1CCN(c2ncnc3[nH]ncc23)CC1 [p70 S6 Kinase Inhibitor] | 43.8 | 79.6 | 118.7 | 159.0 | 233.6 | 539.1 | 928.6 | 1158.5 | 1256.6 | – | NS (NS=Not Significant (p>0.05)) | NS (NS=Not Significant (p>0.05)) | NS (NS=Not Significant (p>0.05)) | * (*=0.01<p≦0.05) | * (*=0.01<p≦0.05) | NS (NS=Not Significant (p>0.05)) | NS (NS=Not Significant (p>0.05)) | NS (NS=Not Significant (p>0.05)) | NS (NS=Not Significant (p>0.05)) |
